Entries after “also recorded” stand apart in the source; their conditions may differ.
Legend:
Experiment in all cases: PGE of HPRT with Cpf1 electroporation in non-pluripotent cells
HEK293 cells = format: cell-based, human; settings: 20 μM NU7026, 0.01 μM TSA, 0.5 μM MLN4924, 5 μM NSC 15520
Method: (§1) Stem cell lines cultured for this project included human 409-B2 hiPSC ([…], Riken BioResource Center) and SC102A1 hiPSC ([…], BioCat GmbH), chimpanzee SandraA ciPSC (female, Mora-Bermúdez et al. 201637), as well as H9 hESC ([…], WiCell Research Institute, Ethics permit AZ 3.04.02/0118). Stem cell lines were grown on Matrigel Matrix (Corning, 35248), and mTeSR1 (StemCell Technologies, 05851) with mTeSR1 supplement (StemCell Technologies, 05852) was used as culture media. Non-pluripotent cell types and their respective media used were: HEK293 (ECACC, 85120602) with DMEM/F-12 (Gibco, 31330-038) supplemented with 10% FBS (SIGMA, F2442) and 1% NEAA (SIGMA, M7145); K562 (ECACC, 89121407) with IMDM (ThermoFisher, 12440053) supplemented with 10% FBS; CD4^+ T (HemaCare, PB04C-1) with RPMI 1640 (ThermoFisher, 11875-093) supplemented with 10% FBS, and activated with Dynabeads Human T-Activator (CD3/CD28) (ThermoFisher, 11131D); CD34^+ progenitor (HemaCare, M34C-1) with StemSpan SFEM (Stemcell, 09600) supplemented with StemSpan CC110 (StemCell, 02697); and HEKa (Gibco, C0055C) with Medium 154 (ThermoFisher, M154500) and Human Keratinocyte Growth Supplement (ThermoFisher, S0015). Cells were grown at 37° C. in a humidified incubator gassed with 5% CO2. Media was replaced every day for stem cells and every second day for non-pluripotent cell lines. Cell cultures were maintained 4-6 days until ˜80% confluency, and subcultured at a 1:6 to 1:10 dilution. Adherent cells were dissociated using EDTA (VWR, 437012C). The media was supplemented with 10 μM Rho-associated protein kinase (ROCK) inhibitor Y-27632 (Calbiochem, 688000) after cell splitting for one day in order to increase cell survival.
(§2) The recombinant A.s. Cpf1 and S.p. Cas9 protein and electroporation enhancer was ordered from IDT (Coralville, USA) and nucleofection was done using the manufacturer's protocol, except for the following alterations. Nucleofection was done using the B-16 program (or U-14 for CD4^+ T cells) of the Nucleofector 2b Device (Lonza) in cuvettes for 100 μl Human Stem Cell nucleofection buffer (Lonza, VVPH-5022), or Human T Cell nucleofection buffer for CD4^+ T cells (Lonza, VPA-1002), and Human CD34 Cell nucleofection buffer for CD34^+ progenitor cells (Lonza, VPA-1003), containing 1 million cells of the respective lines, 78 pmol electroporation enhancer, 160 pmol of each gRNA (crRNA/tracR duplex for Cas9 and crRNA for Cpf1) (320 pmol for double nicking with both gRNAs for one gene), 200 pmol ssODN donor, 252 pmol CRISPR protein. For multiplexing, only gRNAs and single stranded DNA donors were electroporated, since a Cas9n expressing iCRISPR-Cas9n hiPSC line was used. Cells were counted using the Countess Automated Cell Counter (Invitrogen). […]

K562 cells = format: cell-based, human; settings: 20 μM NU7026, 0.01 μM TSA, 0.5 μM MLN4924, 5 μM NSC 15520
Method: as §1, §2

[1] = tested on: primary Human Epidermal Keratinocytes (HEKa); format: cell-based
Method: as §1
The recombinant A.s. Cpf1 and S.p. Cas9 protein and electroporation enhancer was ordered from IDT (Coralville, USA) and nucleofection was done using the manufacturer's protocol, except for the following alterations. […] Cells were counted using the Countess Automated Cell Counter (Invitrogen). […]

SMILES	effect on PGE efficiency (HEK293 cells)	effect on PGE efficiency (K562 cells)	effect on PGE efficiency [1]
NS(=O)(=O)OC[C@@H]1C[C@@H](n2ccc3c(N[C@H]4CCc5ccccc54)ncnc32)C[C@@H]1O [MLN4924, Pevonedistat]	clear disruptive effect	clear disruptive effect	disruptive effect
CC(C)C1=CC23CCC4C(C)(C(=O)O)CCCC4(C)C2CC1C(C(=O)O)C3C(=O)O (stereo not shown) [NSC 15520, Fumaropimaric acid]			disruptive effect
O=c1cc(N2CCOCC2)oc2c1ccc1ccccc12 [NU7026]	strongly increases; also recorded: increases	strongly increases; also recorded: increases	disruptive effect

From patent US12173309B2, “Compounds for increasing genome editing efficiency” (Max-Planck-Gesellschaft zur Förderung der Wissenschaften …, priority 2017, dated 2024)
